Assay results reported in patent US20200222474A1, “COMPOSITIONS AND METHODS FOR INCREASING PHYTOCHEMICAL BIOAVAILABLITY AND BIOACTIVITY” (North Carolina State University, priority 2017, published 2020).

How the values were obtained:
L. acidophilus NCFM [1] = test: Growth of L. acidophilus NCFM on plant glycosides as single carbon source (OD600); format: cell-based, Lactobacillus acidophilus; conditions: for OD600 max: single carbon source, 200 μl cultures, 96 microtitre plates, corrected for medium without carbon source
Experimental: (§1) For initial growth and gene expression studies, L. acidophilus NCFM was propagated three times in semi-defined medium (SDM) supplemented with either 1% or 0,5% (w/v) of the plant glycoside or carbohydrate (Table 1). For the RNA-seq analysis, cells were harvested by centrifugation (3,220×10 min, 25° C.) in the mid-exponential phase (OD600=0.6-0.8) and stored at −80° C. for subsequent RNA isolation. For the mass spectrometry metabolite analyses, 200 μt samples were taken at 0, 3, 6, 9, 12, and 24 hours of growth; cells were removed by centrifugation; and supernatants were stored at −80° C. for further analysis.
(§2) Phenotypic growth assays were performed using 1% (v/v) overnight cultures of L. acidophilus strains (Table 2) and other Lactobacillus species (Table 3) grown on SDM supplemented with 1% (w/v) glucose to inoculate 200 μL of SDM supplemented with 1% (w/v) of the examined carbohydrate (0.5% in the case of esculin) in 96-well microplate wells (Corning Costar, Corning, N.Y., USA) in duplicate or triplicate wells, respectively. The microplates were sealed with clear adhesive film, incubated at 37° C. in a Fluostar Optima microplate reader (BMG Labtech, Cary, N.C., USA), and the cell optical density (OD600) was monitored for 30 hours.
The growth of L. acidophilus NCFM was evaluated on twelve chemically diverse, nutritionally relevant and/or therapeutically active PGs 1; Table 1). FIG. 1A provides the structures and common sources of plant glycoside substrates described herein. The compounds that support growth of Lactobacillus acidophilus are in green. RI: β-D-Glcp; R2: Gentiobioside (β-D-Glcp-(1,6)-D-Glcp); R3: Rutinoside (α-L-Rhaf-(1,6)-D-Glcp). The graph in FIG. 1B depicts plant glycoside utilization analyzed by mass spectrometry and the growth as the maximum OD600. Due to the low solubility of polydatin, OD600 cannot be used as a growth metric and utilization of this compound is confirmed by the production of lactate as well as a high utilization level based on the metabolite analysis.

L. johnsonii ATCC 33200 = test: Phenotypic growth assay (OD600); format: cell-based; conditions: SDM + 1% (w/v) carbohydrate (0.5% esculin), 37° C., 30 hours; corrected to medium without carbohydrate
Experimental: as §2

[2] = tested on: L. intestinalis Th4, ATCC 49335, DSM 6629; test: Phenotypic growth assay (OD600); format: cell-based; conditions: SDM + 1% (w/v) carbohydrate (0.5% esculin), 37° C., 30 hours; corrected to medium without carbohydrate
Experimental: as §2

[3] = tested on: L. crispatus ATCC 33820, DSM 20584; test: Phenotypic growth assay (OD600); format: cell-based; conditions: SDM + 1% (w/v) carbohydrate (0.5% esculin), 37° C., 30 hours; corrected to medium without carbohydrate
Experimental: as §2

[4] = tested on: L. rhanmosus GG (ATCC 53103); test: Phenotypic growth assay (OD600); format: cell-based; conditions: SDM + 1% (w/v) carbohydrate (0.5% esculin), 37° C., 30 hours; corrected to medium without carbohydrate
Experimental: as §2

L. acidophilus LA-1 = test: Phenotypic growth assay (OD600); format: cell-based; conditions: SDM + 1% (w/v) carbohydrate (0.5% esculin), 37° C., 30 hours; corrected to medium without carbohydrate
Experimental: as §2

[5] = tested on: L. amyloverus ATCC 33620, DSM 20531; test: Phenotypic growth assay (OD600); format: cell-based; conditions: SDM + 1% (w/v) carbohydrate (0.5% esculin), 37° C., 30 hours; corrected to medium without carbohydrate
Experimental: as §2

L. helveticus CNRZ32 = test: Phenotypic growth assay (OD600); format: cell-based; conditions: SDM + 1% (w/v) carbohydrate (0.5% esculin), 37° C., 30 hours; corrected to medium without carbohydrate
Experimental: as §2

L. fermentum ATCC 14931 = test: Phenotypic growth assay (OD600); format: cell-based; conditions: SDM + 1% (w/v) carbohydrate (0.5% esculin), 37° C., 30 hours; corrected to medium without carbohydrate
Experimental: as §2

[6] = tested on: L. jensenii ATCC 25258, 62G, DSM 20557; test: Phenotypic growth assay (OD600); format: cell-based; conditions: SDM + 1% (w/v) carbohydrate (0.5% esculin), 37° C., 30 hours; corrected to medium without carbohydrate
Experimental: as §2

[7] = tested on: L. plantarum sp. plantarum ATCC 14917, LA70; test: Phenotypic growth assay (OD600); format: cell-based; conditions: SDM + 1% (w/v) carbohydrate (0.5% esculin), 37° C., 30 hours; corrected to medium without carbohydrate
Experimental: as §2

[8] = tested on: L. reuteri (ATCC 23272, DSM 20016); test: Phenotypic growth assay (OD600); format: cell-based; conditions: SDM + 1% (w/v) carbohydrate (0.5% esculin), 37° C., 30 hours; corrected to medium without carbohydrate
Experimental: as §2

L. animalis DSM 20602 = test: Phenotypic growth assay (OD600); format: cell-based; conditions: SDM + 1% (w/v) carbohydrate (0.5% esculin), 37° C., 30 hours; corrected to medium without carbohydrate
Experimental: as §2

L. gasseri ATCC 33323 = test: Phenotypic growth assay (OD600); format: cell-based; conditions: SDM + 1% (w/v) carbohydrate (0.5% esculin), 37° C., 30 hours; corrected to medium without carbohydrate
Experimental: as §2

L. acidophilus NCFM [9] = test: Plant glycoside uptake and metabolite analysis of L. acidophilus NCFM culture supernatants by UHPLC-DAD-Q-TOF-MS; format: cell-based, Lactobacillus acidophilus; conditions: qualitative: depletion of the plant glycoside and/or appearance of its metabolites
Experimental: as §1
Analysis of plant glycoside uptake from L. acidophilus NCFM culture supernatants using mass spectrometry. The supernatants of L. acidophilus NCFM cultures grown on amygdalin, arbutin, esculin or salicin as carbon sources were analyzed during 24 hours by ultra-high performance liquid chromatography-diode array detection-quadruple time of flight mass spectrometry (UHPLC-DAD-Q-TOF-MS). Samples were diluted 1:20 (v/v) with methanol and an injection volume of […] was used. Separation was carried out on an Agilent Poroshell 120 phenyl-hexyl column (2.1×150 mm, 2.7 μm) using the Agilent Infinity 1290 UHPLC system (Agilent Technologies, Santa Clara, Calif., USA) equipped with a UV/vis spectrum diode array detector. Separation was performed at 0.35 mL min-1., 60° C. with a linear gradient consisting of water (A) and acetonitrile (B) both buffered with 20 mM formic acid, starting at 10% B and increased to 100% in 15 min where it was held for 2 min, returned to 10% in 0.1 min and kept for 3 min. MS detection was performed on an Agilent 6550 iFunnel QTOF MS equipped with Agilent Dual Jet Stream electrospray ion source with the drying gas temperature of 160° C. and gas flow of 13 L min^−1, whereas the sheath gas temperature was 300° C. and flow was 16 L min-1. Ionization was conducted in ESI-mode with capillary voltage set to 4000 V and nozzle voltage to 500 V. Mass spectra were recorded as centroid data for m/z 85-1700 in MS mode with an acquisition rate of 10 spectra s^−1. To avoid carry-over, the needle seat was back-flushed for 15 s at 4 mL min-1 with each of: i) isopropanol: 0.2% ammonium hydroxide (w/v) in water (1:1 v/v); ii) acetonitrile with 2% formic acid (w/v); iii) water with 2% formic acid. Data was processed with the Agilent Mass Hunter Qualitative Analysis B.07.00 software package (Agilent Technologies) and molar concentrations were obtained from standard curves of the plant glycosides and their main metabolites. Targeted compound searches were performed using lists of previously identified compounds plus standard chemical modifications.

[10] = growth concentration 0.5% (w/v)

C=CCC(=NOS(=O)(=O)O)S[C@@H]1O[C@H](CO)[C@@H](O)[C@H](O)[C@H]1O (stereo in doubt) [Sinigrin hydrate]
OD600 max (L. acidophilus NCFM [1]; [10]): 0.0

OC[C@H]1O[C@@H](Oc2ccc(O)cc2)[C@H](O)[C@@H](O)[C@@H]1O [Arbutin]
Growth (OD600 max class) of L. johnsonii ATCC 33200 (L. johnsonii ATCC 33200): + (“+” signifies 0.3 > OD600 max > 0.1.)
Growth (OD600 max class) of L. intestinalis Th4, ATCC 49335, DSM 6629 [2]: − (“−” signifies OD600 max < 0.1.)
Growth (OD600 max class) of L. crispatus ATCC 33820, DSM 20584 [3]: − (“−” signifies OD600 max < 0.1.)
Growth (OD600 max class) of L. rhanmosus GG (ATCC 53103) [4]: +++ (“+++” signifies OD600 max > 0.6.)
Growth (OD600 max class) of L. acidophilus LA-1 (L. acidophilus LA-1): − (“−” signifies OD600 max < 0.1.)
Growth (OD600 max class) of L. amyloverus ATCC 33620, DSM 20531 [5]: − (“−” signifies OD600 max < 0.1.)
Growth (OD600 max class) of L. helveticus CNRZ32 (L. helveticus CNRZ32): − (“−” signifies OD600 max < 0.1.)
Growth (OD600 max class) of L. fermentum ATCC 14931 (L. fermentum ATCC 14931): − (“−” signifies OD600 max < 0.1.)
Growth (OD600 max class) of L. jensenii ATCC 25258, 62G, DSM 20557 [6]: + (“+” signifies 0.3 > OD600 max > 0.1.)
Growth (OD600 max class) of L. plantarum sp. plantarum ATCC 14917, LA70 [7]: +++ (“+++” signifies OD600 max > 0.6.)
Growth (OD600 max class) of L. reuteri (ATCC 23272, DSM 20016) [8]: − (“−” signifies OD600 max < 0.1.)
Growth (OD600 max class) of L. animalis DSM 20602 (L. animalis DSM 20602): + (“+” signifies 0.3 > OD600 max > 0.1.)
Growth (OD600 max class) of L. gasseri ATCC 33323 (L. gasseri ATCC 33323): − (“−” signifies OD600 max < 0.1.)
Catabolism based on MS (L. acidophilus NCFM [9]; growth concentration 1% (w/v)): No
Growth (OD600 max class) of L. acidophilus NCFM (L. acidophilus NCFM [1]; SDM + 1% (w/v) carbohydrate (0.5% esculin), 37° C., 30 hours, corrected to medium without carbohydrate): − (“−” signifies OD600 max < 0.1.)
OD600 max (L. acidophilus NCFM [1]; growth concentration 1% (w/v)): 0.0

OCC1=C[C@@H](O)[C@@H]2C=CO[C@@H](O[C@@H]3O[C@H](CO)[C@@H](O)[C@H](O)[C@H]3O)[C@H]12 [Aucubin]
Catabolism based on MS (L. acidophilus NCFM [9]; [10]): No
OD600 max (L. acidophilus NCFM [1]; [10]): 0.0

O=c1c(-c2ccc(O)cc2)coc2cc(O[C@@H]3O[C@H](CO)[C@@H](O)[C@H](O)[C@H]3O)ccc12 [Daidzin]
OD600 max (L. acidophilus NCFM [1]; [10]): 0.0

COc1cc2ccc(=O)oc2c(O[C@@H]2O[C@H](CO)[C@@H](O)[C@H](O)[C@H]2O)c1O [Fraxin]
Catabolism based on MS (L. acidophilus NCFM [9]; [10]): Yes
OD600 max (L. acidophilus NCFM [1]; [10]): 0.4

O=c1c(O[C@@H]2O[C@H](CO)[C@@H](O)[C@H](O)[C@H]2O)c(-c2ccc(O)c(O)c2)oc2cc(O)cc(O)c12 [Isoquercetin]
OD600 max (L. acidophilus NCFM [1]; [10]): 0.0

C[C@@H]1O[C@@H](OC[C@H]2O[C@@H](Oc3c(-c4ccc(O)c(O)c4)oc4cc(O)cc(O)c4c3=O)[C@H](O)[C@@H](O)[C@@H]2O)[C@H](O)[C@H](O)[C@H]1O [Rutin hydrate]
OD600 max (L. acidophilus NCFM [1]; [10]): 0.1

COc1cc(C=O)ccc1O[C@@H]1O[C@H](CO)[C@@H](O)[C@H](O)[C@H]1O [Vanilin 4-O-β-glucoside]
Catabolism based on MS (L. acidophilus NCFM [9]; [10]): Yes
OD600 max (L. acidophilus NCFM [1]; [10]): 1.3

OCc1ccccc1O [salicyl alcohol]
ability of the aglycone per se to support growth (L. acidophilus NCFM [1]; data not shown): unable to support growth
